Test results from ChEMBL document CHEMBL5230110, “FabI (enoyl acyl carrier protein reductase) - A potential broad spectrum therapeutic target and its inhibitors” (Eur J Med Chem, 2020).
≈ marks a conversion by molar mass, not a printed value.

Assays:
[1] = target: T1, Enoyl-[acyl-carrier-protein] reductase [NADPH] FabI (Staphylococcus aureus, UniProt Q6GI75); experiment: Inhibition of Staphylococcus aureus FabI assessed as inhibition at 10 uM
T1 sequence (Q6GI75 whole entry): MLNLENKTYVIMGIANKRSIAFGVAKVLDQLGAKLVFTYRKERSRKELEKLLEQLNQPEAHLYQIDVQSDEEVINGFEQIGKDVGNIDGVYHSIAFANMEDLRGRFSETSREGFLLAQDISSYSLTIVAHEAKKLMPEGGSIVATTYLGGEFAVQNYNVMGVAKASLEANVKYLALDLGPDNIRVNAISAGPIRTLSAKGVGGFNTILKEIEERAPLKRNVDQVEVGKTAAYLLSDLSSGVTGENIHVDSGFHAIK

Staphylococcus aureus [2] = experiment: Antibacterial activity against Staphylococcus aureus assessed as inhibition of bacterial growth measured after 24 hrs; assay type: functional
Escherichia coli = experiment: Antibacterial activity against Escherichia coli ATCC 35218 assessed as reduction in microbial growth inhibition; assay type: functional
Staphylococcus aureus [3] = experiment: Antibacterial activity against Staphylococcus aureus ATCC 43300 assessed as reduction in microbial growth inhibition in presence of ceftazidime; assay type: functional
Staphylococcus aureus [4] = experiment: Antibacterial activity against […] Staphylococcus aureus ATCC 29213 assessed as reduction in microbial growth inhibition; assay type: functional
Staphylococcus aureus [5] = experiment: Antibacterial activity against Methicillin-resistant Staphylococcus aureus 5912 assessed as reduction in microbial growth inhibition; assay type: functional
Staphylococcus aureus [6] = experiment: Antibacterial activity against Staphylococcus aureus ATCC 29213 assessed as reduction in microbial growth inhibition; assay type: functional
Staphylococcus aureus [7] = experiment: Antibacterial activity against Staphylococcus aureus ATCC 43300 assessed as reduction in microbial growth inhibition; assay type: functional
[8] = Cytotoxicity against African green monkey Vero cells assessed as reduction in cell viability measured after 72 hrs by coulter counter method; assay type: toxicity, cell-based; conditions: chlorocebus sabaeus
Staphylococcus aureus [9] = experiment: Antibacterial activity against Staphylococcus aureus ATCC 43300 assessed as reduction in microbial growth inhibition in presence of chloramphenicol; assay type: functional
Staphylococcus aureus [10] = experiment: Antibacterial activity against Staphylococcus aureus ATCC 43300 assessed as reduction in microbial growth inhibition in presence of carbenicillin; assay type: functional
Staphylococcus aureus [11] = experiment: Antibacterial activity against Methicillin-resistant Staphylococcus aureus 5749 assessed as reduction in microbial growth inhibition; assay type: functional

SMILES	IC50 [1] [µM]	MIC (Staphylococcus aureus [2]) [mg/L]	MIC (Escherichia coli) [µM]	MIC (Staphylococcus aureus [3]) [mg/L]	MIC (Staphylococcus aureus [4]) [µM]	MIC (Staphylococcus aureus [5]) [µM]	MIC (Staphylococcus aureus [6]) [µM]	MIC (Staphylococcus aureus [7]) [mg/L]	CC50 at 72 h [8] [µM]	MIC (Staphylococcus aureus [9]) [mg/L]	MIC (Staphylococcus aureus [10]) [mg/L]	MIC (Staphylococcus aureus [11]) [µM]
CC(C)=CCc1c(O)ccc(C(=O)[C@H]2[C@@H](c3c(O)cc(-c4cc5ccc(O)cc5o4)cc3O)C=C(C)C[C@@H]2c2ccc(O)cc2O)c1O [CHALCOMORACIN]	5.5	4 (≈ 6.17 µM)										
C[C@@H](Oc1cc(-c2cnn(C3CCNCC3)c2)cnc1N)c1c(Cl)ccc(F)c1Cl [CRIZOTINIB]			250	4	31.2	15.6	125	7.03	4.23	2	2	125
